According to patent US12655162B2, “Highly efficient myeloperoxidase activatable imaging agents” (priority 2019, dated 2026):
Blank lines part the entries; values can stand above or below the compound they belong to.

Tests used:
[1] = target: T1, MPO (Mus musculus, UniProt P11247); test: MR imaging of tandem stenosis (TS) model of atherosclerotic plaque instability, intervention with AZM198; format: in vivo; conditions: TS Apoe^−/− mice, 7 weeks after TS surgery, 0.3 mmol/kg i.v.
T1 construct: from tissue; host or cells: carotid / brachiocephalic plaque of living male Apoe-/- mice
T1 sequence (P11247 139-718): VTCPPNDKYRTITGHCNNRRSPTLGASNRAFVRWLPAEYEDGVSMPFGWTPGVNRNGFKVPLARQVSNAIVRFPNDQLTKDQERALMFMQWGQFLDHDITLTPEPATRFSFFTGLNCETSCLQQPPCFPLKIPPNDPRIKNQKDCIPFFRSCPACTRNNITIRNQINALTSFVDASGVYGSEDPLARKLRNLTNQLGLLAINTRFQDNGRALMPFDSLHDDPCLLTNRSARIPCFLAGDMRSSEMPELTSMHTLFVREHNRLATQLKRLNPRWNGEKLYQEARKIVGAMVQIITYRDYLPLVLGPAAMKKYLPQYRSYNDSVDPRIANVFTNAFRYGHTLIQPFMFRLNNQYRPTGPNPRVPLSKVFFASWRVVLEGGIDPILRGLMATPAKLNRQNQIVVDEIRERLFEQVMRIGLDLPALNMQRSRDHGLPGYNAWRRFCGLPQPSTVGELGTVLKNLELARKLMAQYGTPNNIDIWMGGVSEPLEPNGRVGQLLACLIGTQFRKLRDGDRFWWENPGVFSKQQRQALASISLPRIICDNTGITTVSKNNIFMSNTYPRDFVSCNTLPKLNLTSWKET
From the text: Six weeks after commencement of WD, tandem stenosis (TS) was introduced into the mice as previously described (see e.g., Rashid et al, Eur. Heart J., 2018, 39:3301-3310). Male Apoe^-/- mice were anesthetized with 4% isoflurane. The right common carotid artery was dissected from circumferential connective tissues. Two stenoses were placed by tying a 6-0 blue-braided polyester fiber suture (TICRON 0.7 Metric) around the exposed artery, with the distal stenosis 1 mm from the carotid artery bifurcation and the proximal stenosis 3 mm from the distal stenosis. Blood flow was measured before and after the addition of each ligature using a perivascular flow module (Transonic, TS420) and a 0.7 mm perivascular flow probe (Transonic MA0.7PSB). Flow for each ligature in the TS was defined as 70% of baseline flow after addition of the distal ligature and 20% of baseline flow after addition of the proximal ligature. […] The contrast-to-noise ratio (CNR) was calculated as follows: CNR=([…] muscle)/SDbackground. The mean CNRs of three consecutive slices in plaque with unstable phenotype and corresponding segments of the left carotid artery (plaque-free), in addition to 1-2 consecutive slices in the brachiocephalic trunk (stable plaque), were calculated. Segmental enhancement attributable to MPO was assessed by calculating the ΔCNR=CNRpost-contrast-CNRpre-contrast. […]

[2] = test system: MPO; test: MR imaging of complete Freund's adjuvant (CFA) subcutaneous inflammation; format: in vivo, mouse; conditions: wild-type mice
Procedure: The efficacy of mcMPO-Gd was validated in a well-established mouse model of subcutaneous inflammation induced by complete Freund's adjuvant (CFA). Six to ten weeks old female C57BL/6J mice (Jackson Laboratories, Bar Harbor, ME) and MPO-deficient mice were used for this experiment. The mice were injected subcutaneously with a 1:1 (v:v) emulsion of CFA:PBS (40 μL of total volume) on one forearm under isoflurane anesthesia. PBS (40 μL) was injected on the other side as control. After 24 h, gadolinium agents (mcMPO-Gd in PBS containing 10% DMSO and 20% N,N-dimethylacetamide, or MPO-Gd in PBS containing 5% DMSO, or Dotarem in PBS) were administered through tail vein injection and the mice imaged at 0 min, 15 min, 30 min, 45 min, and 60 min using serial T1-weighted imaging (TR:900 ms, TE: 13.59 ms, 0.156×0.156×0.5 mm Voxels) with chemical fat suppression and respiratory gating on a 4.7 T small animal MR scanner (Bruker, Cambridge, MA) with a 3-cm quadrature volume coil (Rapid MR International, Germany). Regions of interest (ROI) were drawn manually by a person blinded to the identity of the mice or imaging agent used, and the contrast-to-noise ratios (CNRs) were calculated as CNR=(SIlesion−SIskeletal muscle)/SDbackground.
24 h after injection of a CFA emulsion into the shoulder of mice, contrast agents (0.3 mol/kg) were injected via the tail vein and the animals imaged.

[3] = Kinetic stability: transmetallation with Zn^2+ (relaxation rate R1 over 95 h); format: physicochemical; conditions: 1 mM agent, ZnCl2 2.5 mM, PBS, 40° C., 0.47 T
Procedure: Am. Chem. Soc., 2010, 132:168-177; and Laurent et al, Invest. Radiol., 2001, 36:115-122). mcMPO-Gd or MPO-Gd (1 mM) was incubated with ZnCl2 (2.5 mM) in PBS at 40° C., and the relaxation rates (R1) were measured for 95 h using an inversion-recovery pulse sequence on the Bruker Minispec (Bruker Analytics, North Billerica, MA) at 0.47 T (20 MHz) at 40° C. The stability of mcMPO-Gd was evaluated by kinetic index (R1(t)/R1(t=0)=0.8) and thermodynamic index (R1(72 h)/R1(t=0)) and compared with MPO-Gd (see e.g., Rodriguez et al, J. Am. Chem. […] Org. Chem., 2006, 71:3332-3334). […] T1 relaxation time was measured as previously described at different time points (see e.g., Rodriguez et al, J. Am. Chem. Soc., 2010, 132:168-177). […] Radiol., 2001, 36:115-122) indicating high stability of mcMPO-Gd, consistent with a previous report on the kinetic stability of the macrocyclic GBCAs (see e.g., Laurent et al, Contrast Media Mol. Imaging 2006, 1:128-137).

[4] = 0.47 T, PBS, 40° C.; determined previously (Querol et al); cited from earlier work
[5] = target: bovine serum albumin (BSA) (Bos taurus, UniProt P02769); test: Binding to proteins (BSA) after activation by MPO, T1 relaxation; format: biochemical; conditions: for T1 (Before activation, ms): 0.5 mM agent, PBS; for T1 (Before activation, ms) / T1 (After activation, ms) / T1 change(%): MPO/GOX, 40° C.; for T1 (After activation, ms) / T1 change(%): 1 h
Chain of bovine serum albumin (BSA) (P02769 25-607): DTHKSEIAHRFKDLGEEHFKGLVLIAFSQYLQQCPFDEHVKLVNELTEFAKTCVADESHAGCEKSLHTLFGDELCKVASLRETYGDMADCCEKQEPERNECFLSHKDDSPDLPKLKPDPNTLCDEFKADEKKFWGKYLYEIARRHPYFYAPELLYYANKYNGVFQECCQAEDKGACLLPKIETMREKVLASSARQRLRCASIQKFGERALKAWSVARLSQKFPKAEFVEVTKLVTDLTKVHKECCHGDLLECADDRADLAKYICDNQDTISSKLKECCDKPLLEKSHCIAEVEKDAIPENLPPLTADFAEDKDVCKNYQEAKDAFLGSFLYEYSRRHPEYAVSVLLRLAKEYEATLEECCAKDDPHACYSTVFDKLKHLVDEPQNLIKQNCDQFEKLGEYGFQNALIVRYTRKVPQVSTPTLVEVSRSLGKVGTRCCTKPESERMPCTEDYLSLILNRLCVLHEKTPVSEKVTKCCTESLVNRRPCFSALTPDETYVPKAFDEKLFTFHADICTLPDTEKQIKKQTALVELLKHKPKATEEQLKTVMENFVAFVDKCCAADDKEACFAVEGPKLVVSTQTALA
Procedure: The capability of mcMPO-Gd and MPO-Gd to bind to bovine serum albumin (BSA) after activation by MPO was evaluated. […] The relaxation rates were measured as described above.

[6] = transmetallation with Zn^2+, cited from earlier work

- ΔCNR in unstable plaque [1]: 15.0
- R1(t=72 h)/R1(t=0) (long-term / thermodynamic index) [3]: 0.76
- t (min) for R1(t)/R1(t=0) = 0.8 (kinetic / ratio index) [3]: 2866 min
- improvement in T1 shortening in the presence of BSA ([5]; BSA vs no BSA, after MPO activation): 22%
- T1 (Before activation, ms) ([5]; BSA): 381 ms
- T1 (After activation, ms) ([5]; BSA): 246 ms
- T1 change(%) ([5]; BSA): 54%
- T1 (Before activation, ms) ([5]; No BSA): 375 ms
- T1 (After activation, ms) ([5]; No BSA): 283 ms
- T1 change(%) ([5]; No BSA): 32%
SMILES: O=C([O-])CN(CCN(CC(=O)[O-])CC(=O)NCCc1c[nH]c2ccc(O)cc12)CCN(CC(=O)[O-])CC(=O)NCCc1c[nH]c2ccc(O)cc12.[Gd+3] [MPO-Gd, bis-5-HT-Gd-DTPA]
- increase in activation ratio (AR=CNR(post-contrast)/CNR(first post-contrast)) ([2]; 60 min): 2 fold
- relaxivity (r1) [4]: 4.3 mM⁻¹ s⁻¹

SMILES: CNC[C@H](O)[C@@H](O)[C@H](O)[C@H](O)CO.O=C([O-])CN1CCN(CC(=O)[O-])CCN(CC(=O)O)CCN(CC(=O)[O-])CC1.[Gd+3] [Dotarem, gadoterate meglumine]
- contrast-to-noise ratio (CNR) over time ([2]; i.v., over 60 min): decreased rapidly over time

SMILES: CNC(=O)CN(CCN(CCN(CC(=O)[O-])CC(=O)NC)CC(=O)[O-])CC(=O)[O-].[Gd+3] [BMA—DTPA—Gd, BMA-Gd-DTPA]
- R1(t=72 h)/R1(t=0) (long-term index) ([6]; literature value (Laurent et al)): 0.09
- t (min) for R1(t)/R1(t=0) = 0.8 ([6]; literature value): 50 to 60 min
